According to the NIST ThermoML archive (doi:10.1016/j.fluid.2018.08.017):

Assay: wn = mass fraction of the nth substance listed
Settings: 101 kPa, Liquid; for speed of sound: Single path-length method; for mass density: Vibrating tube method

CN1CCCC1=O [N-methylpyrrolidone] + CCCCn1cc[n+](C)c1.F[B-](F)(F)F
Settings | mass density [kg/m3] | speed of sound [m/s] | viscosity [mPa·s]
293.15 K, w2 = 0 | 1034.1 | 1565.7 | 1.786
293.15 K, w2 = 0.0986 | 1052.7 | 1579.2 | 2.568
293.15 K, w2 = 0.2498 | 1077.9 | 1582 | 3.938
293.15 K, w2 = 0.4971 | 1119.5 | 1585.5 | 9.374
293.15 K, w2 = 0.7413 | 1160.6 | 1580.1 | 27.49
298.15 K, w2 = 0 | 1029.7 | 1546.1 | 1.693
298.15 K, w2 = 0.0986 | 1048.4 | 1560.5 | 2.33
298.15 K, w2 = 0.2498 | 1073.7 | 1564.5 | 3.528
298.15 K, w2 = 0.4971 | 1115.5 | 1570.1 | 8.144
298.15 K, w2 = 0.7413 | 1156.8 | 1566.6 | 22.73
303.15 K, w2 = 0 | 1025.2 | 1526.7 | 1.564
303.15 K, w2 = 0.0986 | 1044 | 1541.8 | 2.129
303.15 K, w2 = 0.2498 | 1069.5 | 1546.8 | 3.18
303.15 K, w2 = 0.4971 | 1111.5 | 1554.5 | 7.116
303.15 K, w2 = 0.7413 | 1153 | 1552.8 | 19.07
308.15 K, w2 = 0 | 1020.8 | 1507.5 | 1.448
308.15 K, w2 = 0.0986 | 1039.7 | 1523.2 | 1.953
308.15 K, w2 = 0.2498 | 1065.4 | 1529.4 | 2.884
308.15 K, w2 = 0.4971 | 1107.5 | 1539 | 6.257
308.15 K, w2 = 0.7413 | 1149.2 | 1539.2 | 16.26
313.15 K, w2 = 0 | 1016.3 | 1488.3 | 1.346
313.15 K, w2 = 0.0986 | 1035.4 | 1504.8 | 1.798
313.15 K, w2 = 0.2498 | 1061.2 | 1512 | 2.627
313.15 K, w2 = 0.4971 | 1103.5 | 1523.7 | 5.544
313.15 K, w2 = 0.7413 | 1145.4 | 1525.6 | 13.88
318.15 K, w2 = 0 | 1011.9 | 1469.2 | 1.258
318.15 K, w2 = 0.0986 | 1031 | 1486.6 | 1.662
318.15 K, w2 = 0.2498 | 1057 | 1494.8 | 2.405
318.15 K, w2 = 0.4971 | 1099.5 | 1508.4 | 4.948
318.15 K, w2 = 0.7413 | 1141.7 | 1512.2 | 12.04
323.15 K, w2 = 0 | 1007.4 | 1450.4 | 1.176
323.15 K, w2 = 0.0986 | 1026.6 | 1468.4 | 1.542
323.15 K, w2 = 0.2498 | 1052.8 | 1478 | 2.214
323.15 K, w2 = 0.4971 | 1095.5 | 1493.2 | 4.444
323.15 K, w2 = 0.7413 | 1137.9 | 1498.9 | 10.54
328.15 K, w2 = 0 | 1002.9 | 1431.4 | 1.103
328.15 K, w2 = 0.0986 | 1022.3 | 1450.5 | 1.435
328.15 K, w2 = 0.2498 | 1048.6 | 1461.1 | 2.043
328.15 K, w2 = 0.4971 | 1091.6 | 1478.1 | 4.015
328.15 K, w2 = 0.7413 | 1134.2 | 1485.6 | 9.281
333.15 K, w2 = 0 | 998.4 | 1412.8 | 1.037
333.15 K, w2 = 0.0986 | 1018 | 1432.6 | 1.341
333.15 K, w2 = 0.2498 | 1044.4 | 1444.4 | 1.892
333.15 K, w2 = 0.4971 | 1087.6 | 1463.2 | 3.636
333.15 K, w2 = 0.7413 | 1130.5 | 1472.4 | 8.224
338.15 K, w2 = 0 | 993.9 | 1394.4 | 0.9769
338.15 K, w2 = 0.0986 | 1013.6 | 1414.6 | 1.258
338.15 K, w2 = 0.2498 | 1040.2 | 1427.8 | 1.76
338.15 K, w2 = 0.4971 | 1083.6 | 1448.1 | 3.34
338.15 K, w2 = 0.7413 | 1126.7 | 1459.3 | 7.318
343.15 K, w2 = 0 | 989.4 | 1376 | 0.923
343.15 K, w2 = 0.0986 | 1009.2 | 1396.4 | 1.182
343.15 K, w2 = 0.2498 | 1036 | 1411.3 | 1.641
343.15 K, w2 = 0.4971 | 1079.6 | 1432.9 | 3.064
343.15 K, w2 = 0.7413 | 1123 | 1445.8 | 6.555
